Tests used:
TG2 [1] = test: TG2 transcript level in MDA-Panc28 cells (RT-PCR); type: cell-based, human
Protocol: Cells were collected for isolation of total RNA. Total cellular RNA was isolated with Trizol reagent (Invitrogen/Life Technologies, Carlsbad, Calif., USA), and cDNA was obtained from 5 μg of total RNA using a Superscript II RT kit (Invitrogen/Life Technologies). Briefly, 5 μl of the total 20 μl of reverse-transcribed product was used for PCR in 1×PCR buffer containing 1.5 mM MgCl2, 250 μM dNTPs, 0.5 units of Taq polymerase (Invitrogen/Life Technologies), and 100 ng of TG2 primer (primer 1,5′-[…]-3′; primer II, 5′-[…] GAGCAGG-3′) or β-actin-specific primer (Sigma-Genosys, Houston, Tex., USA). Thirty cycles were used for PCR analysis. The reaction products were analyzed on a 2% agarose gel containing ethidium bromide, and cDNA synthesis was verified by detection of the β-actin transcript, which was used as an internal control.

MDA-Panc28 cells [2] = test: Growth inhibition in MDA-Panc28 cells; type: cell-based; conditions: Homo sapiens, MDA-Panc-28; 4 μM for 48 h; read-out: inhibition in cell growth
Protocol: Pancreatic cell lines MDA-Panc28, Capan-2, Bx-PC3, Panc1 and MIAPaCa were provided by Dr. Shrikant Reddy (M. D. Anderson Cancer Center). MDA-Panc28 and Bx-PC3 cell lines were maintained in RPMI-1640 medium supplemented with 10% fetal calf serum. Panc1 and MIAPaCa cell lines and Capan-2 cells were maintained in DMEM and McCoy's 5A, respectively. All media were supplemented with 10% fetal calf serum. For the cell proliferation experiments, cells were seeded at a density of 1-2×10^5 cells in T-25 tissue culture flasks. Twenty-four hours after the seeding, cells were treated with various concentrations of rottlerin for the indicated periods of time. Adherent cells were collected by trypsinization, and cell numbers were determined using a Neubauer cell counting chamber. All experiments were replicated at least two times.

MDA-Panc28 cells [3] = test: Apoptosis in MDA-Panc28 cells (sub-G1 FACS, PARP cleavage); type: cell-based, human
Protocol: PARP cleavage positive cell lysate was used as a positive control. (C) Morphological changes after treatment with rottlerin. Microphotographs were taken using a phase-contrast microscope (300× magnification). Left panel, untreated cells at 48 h of treatment; center panel, cells treated for 48 h, and right panel, cells treated for 96 h.

MCF-7 cells = test: LC3-II accumulation in TG2-negative MCF-7 cells; type: cell-based, human; conditions: MCF-7 (TG2-negative), optimal conditions
Protocol: (§1) (A) A panel of pancreatic cancer cell lines including MDA-Panc28, Capan-2, Bx-PC3, Panc1 and MIAPaCa cells were treated with Rottlerin (4 μM) for 48 h for the detection of LC3-II and TG2 expression by western blot. (B) MCF-7 cell line was also tested for LC3-II and TG2 expression by western blot. (C) Expression of TG2 in MDA-Panc28 cells was determined upon exposure to different treatments (D) Detection of autophagolysosomes; MDA-Panc28 cells were treated with either control siRNA, Rottlerin or TG2 siRNA for 48 h. Photomicrographs show morphological changes of the cells by phase contrast microscopy (left panels); acridine orange staining of the acidic vesicular organelles by fluorescent microscopy (center panels) and the localization LC3-II at autophagosomes in cells after transfection with GFP-LC3 plasmid (right panels). […]
(§2) After treatment, the cells were collected and centrifuged, and whole-cell lysates were obtained using a lysis buffer. Total protein concentration was determined using a DC protein assay kit (Bio-Rad, Hercules, Calif., USA). […] Mouse anti-β-actin and donkey anti-mouse secondary antibody were purchased from Sigma Chemical (St. Louis, Mo., USA) so that β-actin expression could be monitored to ensure equal loading of proteins. […] The blots were visualized with a Fluor Chem 8900 imager and quantified by a densitometer using the Alpha Imager application program (Alpha Innotech). […]

MDA-Panc28 cells [4] = test: Acidic vesicular organelles / autophagy by acridine orange FACS; type: cell-based, human; conditions: 48 h, flow cytometry; control cells 8%
Protocol: To detect and quantify acidic vesicular organelles, cells were stained with acridine orange as described previously. The number of acridine orange-positive cells was determined by fluorescence-activated cell sorting (FACS) analysis. Cell morphology was examined using phase-contrast and fluorescence microscopy (Nikon, Melville, N.Y., USA) with the cells remaining in their culture flasks.
Exponentially growing untreated MDA-Panc28 cells were plated 24 h before transfection. Plated cells were transfected with double-stranded siRNA targeting TG2 mRNA and control (non-silencing) siRNA (all from Qiagen, Venlo, Netherlands) and/or the green fluorescent protein (GFP) and microtubule-associated protein 1 light chain 3 (LC3) fusion vector (GFP-LC3) using the Qiagen transfection reagent according to the manufacturer's protocol. Two siRNA sequences targeting TG2 were designed using siRNA-designing software (Qiagen). PKCδ siRNA was obtained from Santa Cruz Biotechnology (Santa Cruz, Calif., USA). Untransfected cells and non-silencing control siRNA-transfected cells were used as negative controls. After treatment, the cells were harvested for western blot analysis or FACS analysis to determine whether autophagy had occurred.

mTOR = mTOR pathway phosphorylation in MDA-Panc28 cells (western blot); type: cell-based, human
Protocol: (A) Phosphorylated mTOR was detected after 48 h of treatment with various doses of rottlerin, cells were subjected to western blot analysis. Phosphorylation of mTOR was inhibited in a dose-dependent manner. (B) MDA-Panc28 cells were treated with a specific mTOR inhibitor, rapamycin (at either 20 nM or 100 nM), TG2 siRNA or left untreated.
as §2, with “USA). Rottlerin and mTOR inhibitor (rapamycin) were purchased from Calbiochem (La Jolla, Calif., USA). Aliquots containing 30 μg of total protein from each sample were subjected to sodium dodecyl sulfate-polyacrylamide gel electrophoresis (SDS-PAGE) with a 4-20% gradient and electrotransferred to nitrocellulose membranes.” for “USA).”

Beclin 1 = Beclin 1 expression in MDA-Panc28 cells; type: cell-based, human; conditions: MDA-Panc28, data not shown
TG2 [5] = test: TG2 expression in pancreatic cancer cell lines (western blot); type: cell-based, human; conditions: 4 μM for 48 h, all pancreatic cancer cell lines tested
Protocol: as §1, §2

CC(=O)c1c(O)c(C)c(O)c(Cc2c(O)c3c(c(C(=O)/C=C/c4ccccc4)c2O)OC(C)(C)C=C3)c1O [rottlerin]
effect on TG2 expression at the level of transcription (TG2 [1]): inhibitory effect | inhibition at 4 µM (MDA-Panc28 cells [2]): 49% | apoptosis (accumulation in sub-G1 phase) (MDA-Panc28 cells [3]; 4 μM for 48 h, FACS): failed to promote any apoptosis | PARP cleavage (MDA-Panc28 cells [3]; Western blot): failed to show any poly ADP-ribose polymerase (PARP) cleavage | LC3-II accumulation (MCF-7 cells): failed to produce any increase in LC3-II accumulation | percentage of red fluorescein-positive cells (acidic vesicular organelles) (MDA-Panc28 cells [4]): 64% | phosphorylated mTOR (p-mTOR) (mTOR; MDA-Panc28, 48 h): downregulated phosphorylated mTOR (p-mTOR) | p-p70S6K (mTOR; MDA-Panc28, data not shown): downregulated | Beclin 1 expression (Beclin 1): Expression levels did not change | TG2 expression (TG2 [5]): parallel decrease in TG2 expression

From patent publication US8299040B2, “Methods for treating cancer targeting transglutaminase” (Board of Regents, The University of Texas System, priority 2006, dated 2012)
